Measurements: ChEMBL document CHEMBL3351927, “Pyrrole alkaloids from the fruits of Morus alba” (Bioorg Med Chem Lett, 2014)

Target: T1, Pancreatic triacylglycerol lipase (Sus scrofa) (UniProt P00591)
T1 sequence (whole entry): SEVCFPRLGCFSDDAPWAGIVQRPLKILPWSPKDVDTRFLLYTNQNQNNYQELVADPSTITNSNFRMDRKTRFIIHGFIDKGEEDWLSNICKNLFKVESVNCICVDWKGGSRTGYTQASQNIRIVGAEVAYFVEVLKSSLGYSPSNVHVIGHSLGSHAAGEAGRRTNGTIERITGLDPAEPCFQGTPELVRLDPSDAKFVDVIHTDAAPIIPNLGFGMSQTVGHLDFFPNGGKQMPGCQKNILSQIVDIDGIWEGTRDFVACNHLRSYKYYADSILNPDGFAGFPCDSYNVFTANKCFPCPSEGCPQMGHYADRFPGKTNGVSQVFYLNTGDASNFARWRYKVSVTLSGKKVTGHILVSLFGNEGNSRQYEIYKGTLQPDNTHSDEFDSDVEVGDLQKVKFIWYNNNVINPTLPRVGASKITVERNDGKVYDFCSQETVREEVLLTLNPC
Assay: Inhibition of porcine pancreatic lipase assessed as p-NPB substrate hydrolysis at 100 uM after 15 mins by microplate reader

inhibition	Structure (SMILES)
40%	COCc1ccc(C=O)n1C(C)C(=O)OC (configuration not stated)
70%	O=Cc1ccc2n1C(Cc1ccc(O)cc1)C(=O)OC2 (configuration not stated)
